This note sets out measurements from paper PMC8746709, “Benzothiazolium Derivative-Capped Silica Nanocomposites for β-Amyloid Imaging In Vivo” (Analytical Chemistry, 2021).

The target in the assay is T1, β-amyloid(1–42) (Aβ1–42) aggregates (Homo sapiens, UniProt P05067).
T1 construct: gene APP; Aβ1–42, aggregates (filamentous)
As to the kind of experiment: fluorescence saturation binding assay with Aβ[…] aggregates.

SMILES strings stand for the structures.

T1 sequence (P05067 672-713): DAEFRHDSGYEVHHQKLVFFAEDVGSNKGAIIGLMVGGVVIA

`CN(C)c1ccc(/C=C/c2sc3ccccc3[n+]2C)cc1` [SZI-1, (E)-2-(4-(Dimethylamino)styryl)-3-methylbenzo[d]thiazol-3-ium Iodide]: the Kd (usually the concentration at which binding is half-saturated) was found to be 0.508 ± 0.0948 µM.

As to `CN(C)c1ccc(/C=C/C=C/c2sc3ccccc3[n+]2C)cc1` [SZI-2, 2-((1E,3E)-4-(4-(Dimethylamino)phenyl)buta-1,3-dien-1-yl)-3-methylbenzo[d]thiazol-3-ium Iodide], the affinity, expressed as Kd, was 0.601 ± 0.0948 µM.
